Measurements published in article PMC6321252 (Molecules, 2018).

How the values were obtained:
[1] = design: method as in PMID 21637946; conditions: cited from earlier work
Caco-2 cell monolayers = experiment: Transepithelial transport of BB across Caco-2 cell monolayers; assay type: in vitro ADME
Experimental: (§1) Monolayers were employed at 21 days after seeding. To ensure the integrity of each cell monolayer, transepithelial electrical resistance was determined. Subsequently, cell monolayers were incubated with compounds in fresh incubation media from either the AP or BL side for designated time periods at 37 °C. The volume of incubation media on the AP and BL sides was 0.5 and 1.5 mL, respectively, and a 30 µL aliquot of the incubation solution was withdrawn at designated time points (60, 120, 180, and 240 min) from the receiver compartment and replaced with the same volume of a fresh prewarmed HBSS buffer.
(§2) BB concentrations were detected through LC–MS/MS. Apparent permeability (Papp) was calculated as follows:Papp = (dQ/dt) × VA/(C0 × A)(1) where dQ/dt is the permeability rate, A is the surface area of the monolayer, and C0 is the initial concentration of the drug.

[2] = as above; assay type: in vitro ADME; conditions: human, read-out: efflux ratio R = Papp(B-A)/Papp(A-B) of BB
Experimental: as §1, §2

Caco-2 cells = experiment: Cell viability (MTT assay) in Caco-2 cells; assay type: cell-based; conditions: BB 12.5 to 50 μM, 24 h
Experimental: The cells were treated with different doses of compounds and incubated for 24 h. Cell viability was determined using the MTT assay. Briefly, the cells were incubated with the MTT reagent (0.5 mg/mL) at 37 °C for 4 h, and the absorbency at a wavelength of 492 nm was measured using FlexStation 3 (Molecular Devices, Sunnyvale, CA, USA). The percentage of optical density was calculated by comparing with that of the control group.

P-gp = conditions: cited from earlier work
db/db mice = experiment: Hypoglycemic study in diabetic db/db mice; assay type: in vivo, C57BLKS/J db/db mice; conditions: for AUC for the IPTT vs nontreated db/db mice / AUC for the OGTT vs nontreated db/db mice: 5 weeks administration; for AUC for the IPTT vs nontreated db/db mice / AUC for the OGTT vs nontreated db/db mice / effect on body weight (obesity): metformin 150 mg/kg, BB 200 mg/kg, BB 200 mg/kg plus OPCs 60 mg/kg; for effect on body weight (obesity): repeated oral administration 4 weeks
Experimental: Male C57BLKS/J db/db and db/m mice were obtained from the Model Animal Research Center of Nanjing University (Nanjing, China). The mice were housed in a temperature-and humidity-controlled room with free access to standard chow and water under a 12/12-h light/dark cycle. At 6 weeks of age, the diabetic db/db mice were randomly divided into 4 groups (n = 10 per group). […] After 6 h of fasting, their blood glucose was monitored using blood from the tail vein and a glucometer (Accu-CHEK, Roche, IN, USA) every week. On Days 33 and 35 after drug administration, the mice were fasted for 12 and 6 h to perform an OGTT and IPTT, respectively. At the end of the experimental period, the mice’s blood was collected for further studies. Serum TG and TC levels were assayed using commercial enzyme assay kits (Rongsheng, Shanghai, China).

Row | Structure (SMILES) | oral bioavailability [1] | Papp(A-B) of BB (Caco-2 cell monolayers; apical to basolateral) | Papp(B-A) of BB (Caco-2 cell monolayers; basolateral to apical) | efflux ratio at 240 min [2] | cytotoxicity on Caco-2 cells (MTT) (Caco-2 cells) | P-gp substrate status (P-gp) | AUC for the IPTT vs nontreated db/db mice (db/db mice; p < 0.001 vs. control) | AUC for the OGTT vs nontreated db/db mice (db/db mice; p < 0.001 vs. control) | hepatotoxicity (from serum ALT and AST) (db/db mice; 5 weeks, BB 200 mg/kg with or without OPCs 60 mg/kg) | lowering of fasting blood glucose (FBG) (db/db mice; oral, 4 weeks, BB 200 mg/kg with or without OPCs 60 mg/kg, p < 0.001 vs. control) | effect on body weight (obesity) (db/db mice)
1 | COc1ccc2cc3[n+](cc2c1OC)CCc1cc2c(cc1-3)OCO2 [BB, Berberine] | < 1% | 0.146 ± 0.012 ×10^−6 | 1.001 ± 0.049 ×10^−6 | 7.74 ± 1.13 | no toxic effect | substrate of P-gp | significantly lower | significantly lower | did not cause hepatotoxicity | 35% | no significant effect
2 | CN(C)C(=N)N=C(N)N [metformin] |  |  |  |  |  |  | significantly lower | significantly lower |  |  | no significant effect
